{"source": "patent US20100152259A1", "about": "(Merck & Co Inc., priority 2006, published 2010)", "tested_on": "rabbit aortic slices", "test": "vessel relaxation assay (tissue-based, rabbit aortic slices)", "type": "cell-based", "settings": "Oryctolagus cuniculus", "data": [{"smiles": "CCCCc1nc(Cl)c(C(=O)OC(C)OC(=O)OCCCC[C@H](CO[N+](=O)[O-])O[N+](=O)[O-])n1Cc1ccc(-c2ccccc2-c2nn[nH]n2)cc1", "note": "(single isomer, unassigned) [Compound 2]", "values": [{"measurement": "EC50", "value": 1, "unit": "µM"}]}, {"smiles": "CCCCc1nc(Cl)c(C(=O)OCCOCCO[N+](=O)[O-])n1Cc1ccc(-c2ccccc2-c2nn[nH]n2)cc1", "note": "[Compound 1, reference compound]", "values": [{"measurement": "EC50", "value": 6, "unit": "µM"}]}, {"smiles": "CCCCc1nc(Cl)c(C(=O)OC(C)OC(=O)OCCOCC(CO[N+](=O)[O-])O[N+](=O)[O-])n1Cc1ccc(-c2ccccc2-c2nnn[nH]2)cc1", "note": "(stereo not drawn) [Compound 3]", "values": [{"measurement": "EC50", "value": 5, "unit": "µM"}]}, {"smiles": "CCCCc1nc(Cl)c(C(=O)OC(C)OC(=O)OCCC(C)(C)CC(CO[N+](=O)[O-])O[N+](=O)[O-])n1Cc1ccc(-c2ccccc2-c2nnn[nH]2)cc1", "note": "(stereo not drawn) [Example 4, 1-[({[3,3-dimethyl-5,6-bis(nitrooxy)hexyl]oxy}carbonyl)oxy]ethyl 2-butyl-4-chloro-1-{[2′-(1H-tetrazol-5-yl)biphenyl-4-yl]methyl}-1H-imidazole-5-carboxylate]", "values": [{"measurement": "EC50", "value": 1.1, "unit": "µM"}]}, {"smiles": "CCOc1nc2cccc(C(=O)OC(C)(C)OC(=O)OCCCCC(CO[N+](=O)[O-])O[N+](=O)[O-])c2n1Cc1ccc(-c2ccccc2-c2nnn[nH]2)cc1", "note": "(stereo not drawn) [Example 8, 1-[({[5,6-bis(nitrooxy)hexyl]oxy}carbonyl)oxy]-1-methylethyl 2-ethoxy-1-{[2′-(1H-tetrazol-5-yl)biphenyl-4-yl]methyl}-1H-benzimidazole-7-carboxylate]", "values": [{"measurement": "EC50", "value": 0.37, "unit": "µM"}]}, {"smiles": "CCOc1nc2cccc(C(=O)OC(C)(C)OC(=O)OCCCC[C@H](CO[N+](=O)[O-])O[N+](=O)[O-])c2n1Cc1ccc(-c2ccccc2-c2nnn[nH]2)cc1", "note": "[Example 9, 1-[({[(5R)-5,6-bis(nitrooxy)hexyl]oxy}carbonyl)oxy]-1-methylethyl 2-ethoxy-1-{[2′-(1H-tetrazol-5-yl)biphenyl-4-yl]methy}-1H-benzimidazole-7-carboxylate]", "values": [{"measurement": "EC50", "value": 0.99, "unit": "µM"}]}, {"smiles": "CCOc1nc2cccc(C(=O)OC(C)(C)OC(=O)OCCOCC(CO[N+](=O)[O-])O[N+](=O)[O-])c2n1Cc1ccc(-c2ccccc2-c2nnn[nH]2)cc1", "note": "(stereo not drawn) [Example 10]", "values": [{"measurement": "EC50", "value": 2.38, "unit": "µM"}]}, {"smiles": "CCOc1nc2cccc(C(=O)OC(C)(C)OC(=O)OCCOC[C@H](CO[N+](=O)[O-])O[N+](=O)[O-])c2n1Cc1ccc(-c2ccccc2-c2nnn[nH]2)cc1", "note": "[Example 11, 1-{[(2-{[(2R)-2,3-bis(nitrooxy)propyl]oxy}ethoxy)carbonyl]oxy}-1-methylethyl 2-ethoxy-1-{[2′-(1H-tetrazol-5-yl)biphenyl-4-yl]methyl}-1H-benzimidazole-7-carboxylate]", "values": [{"measurement": "EC50", "value": 2.3, "unit": "µM"}]}, {"smiles": "CCOc1nc2cccc(C(=O)OC(C)(C)OC(=O)OCC[C@@H](CO[N+](=O)[O-])O[N+](=O)[O-])c2n1Cc1ccc(-c2ccccc2-c2nnn[nH]2)cc1", "note": "[Example 12, 1-[({[(3S)-3,4-bis(nitrooxy)butyl]oxy}carbonyl)oxy]-1-methylethyl 2-ethoxy-1-{[2′-(1H-tetrazol-5-yl)biphenyl-4-yl]methyl}-1H-benzimidazole-7-carboxylate]", "values": [{"measurement": "EC50", "value": 3.73, "unit": "µM"}]}]}
